Measured values from patent US20220372013A2, “PIPERIDINE-2,6-DIONE DERIVATIVES AND CROHN'S DISEASE TREATING” (Tianjin Hemay Pharmaceutical Sci-Tech Co., Ltd, priority 2016, published 2022).
Like-named read-outs stand apart in the source and are kept apart here. Marks after values point to notes of the source that are not given here.

Key:
[1] = tested on: DNBS-Induced Inflammatory Bowel Disease Models in Rats; assay: Biological Example 3: DNBS-induced inflammatory bowel disease models in rats; assay type: in vivo, Wistar rats; conditions: 30 mg/Kg i.g. qd × 7; for Body weight: Mean ± SD
Experimental: (§1) 102 male Wistar rats were fasted for 40 hours. A 5% glucose injection (10 mL/Kg) was administered subcutaneously during fasting. 72 rats with normal conditions and moderate body weight were selected from the fasting rats. The animals were randomly divided into 9 groups according to the body weight (see Table 9. Grouped Table).
(§2) The animals were anesthetized with ether after 40 hours fasting. A specially made gavage device was slowly inserted into the enteric cavity at 8 cm from the anus. The model control group and each test group were administered with 0.5 mL of 50 mg/mL DNBS in 30% ethanol solution. The normal control group was administered with 0.5 mL of 30% ethanol solution. The animals were inverted in anesthesia for 15 minutes. The day when the model was prepared was day 0 of the experiment. After 4 hours of DNBS induction, the corresponding drug or the corresponding volume of 1% CMC-Na was administered once per day. On day 7 of the experiment, the animals were euthanized to score the colon adhesion degree, measure the length of colon and ulcer area, weigh colon and calculate the colon weight to length ratio.
(§3) One-way ANOVA analysis of the length of colon and colon weight per length of rats was performed by SPSS22. Statistical analyses between groups were performed. The adhesion degree was scored. Mann-Whitney U non-parametric test was performed on ulcer area. Statistical analyses between groups were performed.
(§4) Calculation Formula of Inhibitory rate of weight increase per length: (Colon weight to length ratio in model group−Colon weight to length ratio in administration group)/(Colon weight to length ratio in model group−Colon weight to length ratio in blank group)

[2] = tested on: mice; assay: Biological Example 5: acute toxicity experiment of single oral administration in mice; assay type: in vivo; conditions: single oral 1000 mg/Kg, Mean ± SD
Experimental: The mice were fasted one day before the experiment. On the day of the experiment, 6 mice (ICR mice, body weight of 19-21 g, three females and three males) were selected in each experiment group. First of all, one female and one male were selected to orally give 1000 mg/Kg, and observed for 5-10 minutes. If there were no obvious side effects, the remaining 4 animals were orally given the same dose, and observed for 10-15 minutes. If no animal died, the animals were placed in a box to balancedly feed for 7 days. The state was observed and the body weight was recorded daily.
Observation Indexes within 0-15 Minutes after Administration
Activity: restlessness, hyperactivity
Nervous system response: tremor, spasm, convulsion, ataxia, posture abnormality, etc.
Autonomic nerve: exophthalmos, salivation, tears, urination (hematuria), diarrhea, piloerection, breathing, etc.
State of Animal: lethargy, hyperactivity, excitement, hair loss, diarrhea, abnormal behavior, death, etc.

[3] = tested on: DNBS-Induced Inflammatory Bowel Disease Models in Rats; assay: Biological Example 4: DNBS-induced inflammatory bowel disease models in rats; assay type: in vivo, Wistar rats; conditions: 30 mg/Kg i.g. qd × 7; for Adhesion Degree of Colon / Colon weight to length ratio / Ulcer area of colon / inhibition in vivo at 30 mg/kg: day 7; for Body weight: Mean ± SD; for inhibition in vivo at 30 mg/kg: Rattus norvegicus, po, 168 h
Experimental: as §1, with “72” for “40”, “injection” for “injection (10 mL/Kg)”, “subcutaneously twice” for “subcutaneously”, “88” for “72”, “11” for “9”, “11.” for “9.”
as §2, with “72” for “40”
as §3, §4

[4] = read-out: Inhibitory rate of colon adhesion
[5] = read-out: Inhibitory rate of ulcer area of colon
[6] = read-out: Inhibitory rate of weight increase per length

Structure (SMILES)	Daily Body Weight ([2]; Female mice, Day 1) [g]	Daily Body Weight ([2]; Female mice, Day 2) [g]	Daily Body Weight ([2]; Female mice, Day 3) [g]	Daily Body Weight ([2]; Female mice, Day 4) [g]	Daily Body Weight ([2]; Female mice, Day 5) [g]	Daily Body Weight ([2]; Female mice, Day 6) [g]	Daily Body Weight ([2]; Female mice, Day 7) [g]	Daily Body Weight ([2]; Male mice, Day 1) [g]	Daily Body Weight ([2]; Male mice, Day 2) [g]	Daily Body Weight ([2]; Male mice, Day 3) [g]	Daily Body Weight ([2]; Male mice, Day 4) [g]	Daily Body Weight ([2]; Male mice, Day 5) [g]	Daily Body Weight ([2]; Male mice, Day 6) [g]	Daily Body Weight ([2]; Male mice, Day 7) [g]	Adhesion Degree of Colon [3] [point]	Colon weight to length ratio [3] [mg/cm]	Ulcer area of colon [3]	Body weight ([3]; Day 1) [g]	Body weight ([3]; Day 2) [g]	Body weight ([3]; Day 3) [g]	also measured
COCCCN1C(=O)CCC(N2C(=O)c3cccc(NC(C)=O)c3C2=O)C1=O (centres unmarked) [Example 16, 4-acetylamino-2-(1-(3-methoxypropyl)-2,6-dioxopiperidin-3-yl)isoindolin-1,3-dione]																					Adhesion Degree of Colon ([1]; day 7): 1.1 ± 0.8 point; Colon weight to length ratio ([1]; day 7): 114 ± 23 mg/cm; Inhibitory rate of colon adhesion ([1]; day 7): 35.3%; Inhibitory rate of ulcer area of colon ([1]; day 7): 72.8# %; Inhibitory rate of weight increase per length ([1]; day 7): 51.9# %; Ulcer area of colon ([1]; day 7): 0.84 ± 1.25# cm^2; Body weight ([1]; Day 0): 137.3 ± 1.7 g; Body weight ([1]; Day 1): 135.9 ± 3.7 g; Body weight ([1]; Day 2): 137.6 ± 7.0 g; Body weight ([1]; Day 3): 145.0 ± 9.2 g; Body weight ([1]; Day 4): 155.2 ± 10.9 g; Body weight ([1]; Day 5): 166.8 ± 10.2 g; Body weight ([1]; Day 6): 171.5 ± 15.1 g; Body weight ([1]; Day 7): 184.3 ± 13.8 g
COCCN1C(=O)CCC(N2C(=O)c3cccc(O)c3C2=O)C1=O (centres unmarked) [Example 23, 4-hydroxy-2-(1-(2-methoxyethyl)-2,6-dioxopiperidin-3-yl)isoindolin-1,3-dione]	19.1 ± 0.6	22.4 ± 0.4	23.0 ± 0.1	23.0 ± 0.1	24.6 ± 0.4	24.8 ± 0.7	24.6 ± 0.4	19.4 ± 0.8	24.6 ± 1.2	24.5 ± 0.6	24.5 ± 0.6	25.4 ± 1.2	28.1 ± 0.8	29.0 ± 0.8	0.8 ± 0.7	105 ± 12	0.2 ± 0.3# cm^2	126.6 ± 8.5	123.2 ± 9.0	123.9 ± 7.6	Body weight ([3]; Day 4): 136.5 ± 11.8 g; Body weight ([3]; Day 5): 148.1 ± 14.5 g; Body weight ([3]; Day 6): 152.1 ± 15.9 g; Body weight ([3]; Day 7): 166.8 ± 12.8 g; inhibition in vivo at 30 mg/kg [3, 4]: 62.2%; inhibition in vivo at 30 mg/kg [3, 5]: 91.7%; inhibition in vivo at 30 mg/kg [3, 6]: 67.1%
COCCN1C(=O)CCC(N2C(=O)c3ccc(O)c(N)c3C2=O)C1=O (centres unmarked) [Example 8, 4-amino-5-hydroxy-2-(1-(2-methoxyethyl)-2,6-dioxopiperidin-3-yl)isoindolin-1,3-dione]	18.9 ± 0.9	22.9 ± 0.9	24.3 ± 0.7	24.3 ± 1.1	25.3 ± 1.4	25.8 ± 1.5	26.0 ± 2.5	18.0 ± 1.3	23.1 ± 0.9	24.6 ± 1.0	25.6 ± 1.7	27.2 ± 2.2	28.2 ± 2.2	29.2 ± 2.6	0.9 ± 0.6	106 ± 13	0.2 ± 0.4 cm^2	128.6 ± 5.3	128.2 ± 9.2	131.6 ± 13.5	Body weight ([3]; Day 4): 136.8 ± 17.4 g; Body weight ([3]; Day 5): 149.1 ± 16.7 g; Body weight ([3]; Day 6): 149.7 ± 16.8 g; Body weight ([3]; Day 7): 164.1 ± 17.9 g; inhibition in vivo at 30 mg/kg [3, 4]: 52.7%; inhibition in vivo at 30 mg/kg [3, 5]: 91.7%; inhibition in vivo at 30 mg/kg [3, 6]: 65.9%
CNc1cccc2c1C(=O)N(C1CCC(=O)N(CCOC)C1=O)C2=O (centres unmarked) [Example 2, 4-methylamino-2-(1-(2-methoxyethyl)-2,6-dioxopiperidin-3-yl)isoindolin-1,3-dione]	19.2 ± 0.5	22.7 ± 0.6	23.2 ± 0.5	23.2 ± 0.5	24.4 ± 0.2	24.6 ± 1.1	24.5 ± 1.9	18.6 ± 0.5	24.1 ± 0.4	24.7 ± 0.2	24.7 ± 0.2	26.2 ± 0.6	28.8 ± 0.5	29.2 ± 0.8	0.8 ± 0.9	120 ± 25	1.0 ± 1.6 cm^2	122.1 ± 4.6	123.0 ± 8.4	127.1 ± 11.3	Body weight ([3]; Day 4): 132.0 ± 12.4 g; Body weight ([3]; Day 5): 143.9 ± 11.9 g; Body weight ([3]; Day 6): 141.5 ± 11.5 g; Body weight ([3]; Day 7): 162.8 ± 15.8 g; inhibition in vivo at 30 mg/kg [3, 4]: 66.9%; inhibition in vivo at 30 mg/kg [3, 5]: 83.3%; inhibition in vivo at 30 mg/kg [3, 6]: 57.6%
C[S+]([O-])CCN1C(=O)CCC(N2C(=O)c3cccc(N)c3C2=O)C1=O (centres unmarked) [Example 12, 4-amino-2-(1-(2-methylsulfinylethyl)-2,6-dioxopiperidin-3-yl)isoindolin-1,3-dione]	18.7 ± 0.7	21.8 ± 0.6	22.6 ± 0.1	22.6 ± 0.0	23.7 ± 0.6	25.3 ± 1.0	25.7 ± 1.6	18.5 ± 0.2	24.3 ± 0.6	24.9 ± 0.1	24.9 ± 0.1	26.1 ± 0.7	27.8 ± 0.7	28.5 ± 0.7	0.8 ± 0.7	92 ± 16	0.4 ± 0.9 cm^2	129.1 ± 5.1	128.7 ± 6.6	133.9 ± 9.8	Body weight ([3]; Day 4): 141.8 ± 12.0 g; Body weight ([3]; Day 5): 149.2 ± 11.0 g; Body weight ([3]; Day 6): 149.5 ± 11.2 g; Body weight ([3]; Day 7): 167.3 ± 11.3 g; inhibition in vivo at 30 mg/kg [3, 4]: 62.2%; inhibition in vivo at 30 mg/kg [3, 5]: 83.3%; inhibition in vivo at 30 mg/kg [3, 6]: 82.4%
